Test results: patent US20100047371A1, “COMPOSITIONS AND METHODS FOR ORAL CANCER CHEMOPREVENTION USING BERRY PREPARATIONS AND EXTRACTS” (priority 2006, published 2010)

Legend:
[1] = Human pharmacokinetic study: anthocyanins in saliva and peripheral blood after topical gel application; format: in vivo; details: 1.0 g 5% FBR Gel, pH 6.5 topical to floor of mouth, saliva collected 2-5 min after application
Description: Anthocyanin content in sera, saliva, and tissue explants was evaluated by an HPLC-MS assay. The respective samples (sera, saliva or tissue homogenates) were dissolved in 90% solvent A (water plus 1% formic acid) and 10% solvent B (acetonitrile plus 1% formic acid) and then separated on a Symmetry C18 reversed-phase column and analyzed using a Waters 2695 gradient HPLC separation module equipped with a 996 photodiode-array (PDA) UV/visible absorbance detector (Milford, Mass.). The solvent system consisted of a step gradient from 90% A to 50% B over 15 minutes, and the absorption spectra were recorded from 200-800 nm with the inline PDA detector. Mass spectrometry was conducted on a quadrupole ion tunnel mass spectrometer equipped with a Z-spray ESI source. Explant protein levels were determined by the Lowry method, using bovine γ-globulin as the standard protein [Lippman et al., 1993].
Next, evaluation of anthocyanin uptake into human oral mucosa from FBR gels prepared as described in Example 1 was undertaken. For in-vivo studies, participation of human subjects was conducted in accordance with an IRB approved protocol. […] For the phamacokinetic analyses, nine consenting adult volunteers dried the anterior floor of their mouth, placed 1.0 g of 5% berry gel (pH 6.5), and massaged the gel in place for 30 seconds to facilitate uptake. Two minutes after gel application saliva was collected for the next three minutes. Peripheral blood was drawn five minutes after gel application. Following clotting, sera samples were collected, and both the sera and saliva samples were stored at −80° C. until LC-MS analysis as described below.
All nine participants had detectable anthocyanin levels of three anthocyanins (cyanidin 3-rutinoside, cyanidin 3-xylosylrutinoside, cyanidin 3-glucoside) in either their saliva or blood, and 4 donors had detectable levels of two anthocyanins (cyanidin 3-rutinoside and cyanidin 3-xylosylrutinoside) in their peripheral blood. Saliva from eight of the nine donors contained detectable levels of either two (cyanidin 3-rutinoside and cyanidin 3-xylosylrutinoside-4 donors) or three anthocyanins (4 donors).

[2] = system: Human Oral Mucosa Explant Tissues; assay: Effect of final gel pH on anthocyanin uptake into human oral mucosa explant tissues; format: in vitro ADME; details: 10% w/w FBR gel; for Anthocyanin uptake, Gel pH 3.5, Avg. ± SEM / Anthocyanin uptake, Gel pH 6.5, Avg. ± SEM: average of eleven explant samples; for % change 3.5 to 6.5, Avg. ± SEM: average of explant samples
Description: Anthocyanin content in sera, saliva, and tissue explants was evaluated by an HPLC-MS assay. The respective samples (sera, saliva or tissue homogenates) were dissolved in 90% solvent A (water plus 1% formic acid) and 10% solvent B (acetonitrile plus 1% formic acid) and then separated on a Symmetry C18 reversed-phase column and analyzed using a Waters 2695 gradient HPLC separation module equipped with a 996 photodiode-array (PDA) UV/visible absorbance detector (Milford, Mass.). The solvent system consisted of a step gradient from 90% A to 50% B over 15 minutes, and the absorption spectra were recorded from 200-800 nm with the inline PDA detector. Mass spectrometry was conducted on a quadrupole ion tunnel mass spectrometer equipped with a Z-spray ESI source. Explant protein levels were determined by the Lowry method, using bovine γ-globulin as the standard protein [Lippman et al., 1993]. Tissue explants, specifically human oral mucosal explants, were used to determine the in vitro effects of FBR content and pH on anthocyanin uptake. Human oral tissues for the tissue explant studies were obtained from consenting volunteers who were undergoing elective oral surgery procedures. To confirm “no pathologic diagnosis”, a portion of each of these tissues was submitted for light microscopic evaluation. […] Tissues for explant experiments were immediately placed in an artificial saliva transport medium, which also served as the incubation medium for the gel absorption studies. The composition of the artificial saliva used for tissue transport and incubation was (final concentrations): sodium carboxymethylcellulose (0.5%), sorbitol (165 mM), NaCl (14 mM), KCl (16 mM), calcium chloride dehydrate (1.0 mM), MgCl2 (0.63 mM), Trizma hydrochloride (2.0 mM). Tissues from eight donors were used for preliminary studies to compare the penetration of anthocyanins from the 5% berry gel and the 10% FBR gel, both at a final pH of 6.5. In order to account for heterogeneity among human donors, tissue samples were hemisected. One tissue portion treated with 5% and the other with 10% FBR gels. One gram of gel (containing either 5% or 10% w/w FBR) was placed on the epithelial surface of the explant, followed by gently rubbing of the site for 30 seconds to facilitate uptake. Explants were then placed into artificial saliva, incubated for 30 minutes (37° C., 5% CO2), and then frozen at −80° C. until HPLC-mass spectroscopy analyses as previously reported [Rodrigo et al., in press]. Tissue preparation for HPLC analyses consisted of homogenization of the entire oral mucosal specimen, removal of an aliquot for sample protein level determination, followed by the addition of collagenase type II (0.1 mg/mL, GIBCO, Grand Island, N.Y.) and 1% formic acid. Samples were then placed on a Sep Pack (Millipore, Billerica, Mass.), eluted with methanol, and dried under argon gas. Additional oral mucosal explant studies were conducted to compare the effect of FBR gel pH on absorption into oral mucosal explants. Tissues from eleven donors were used for these studies, and handling was as described above with the exception that all gels contained 10% w/w FBR and were formulated at a final pH of 3.5 or 6.5. […] Large differences (up to 15-fold) in detectable anthocyanin levels were found in the gel treated donor tissues; findings that likely reflect the extensive heterogeneity within human tissues that affects tissue penetrative abilities.

Anthocyanin uptake, Gel pH 3.5, Avg. ± SEM [2]	Anthocyanin uptake, Gel pH 6.5, Avg. ± SEM [2]	% change 3.5 to 6.5, Avg. ± SEM [2]	% change 3.5 to 6.5 ([2]; explant sample 001)	Anthocyanin uptake, Gel pH 3.5 ([2]; explant sample 001)	Anthocyanin uptake, Gel pH 6.5 ([2]; explant sample 001)	% change 3.5 to 6.5 ([2]; explant sample 002)	Anthocyanin uptake, Gel pH 3.5 ([2]; explant sample 002)	Anthocyanin uptake, Gel pH 6.5 ([2]; explant sample 002)	% change 3.5 to 6.5 ([2]; explant sample 003)	Anthocyanin uptake, Gel pH 3.5 ([2]; explant sample 003)	Anthocyanin uptake, Gel pH 6.5 ([2]; explant sample 003)	% change 3.5 to 6.5 ([2]; explant sample 004)	Anthocyanin uptake, Gel pH 3.5 ([2]; explant sample 004)	Anthocyanin uptake, Gel pH 6.5 ([2]; explant sample 004)	% change 3.5 to 6.5 ([2]; explant sample 005)	Anthocyanin uptake, Gel pH 3.5 ([2]; explant sample 005)	Anthocyanin uptake, Gel pH 6.5 ([2]; explant sample 005)	% change 3.5 to 6.5 ([2]; explant sample 006)	Anthocyanin uptake, Gel pH 3.5 ([2]; explant sample 006)	SMILES	also measured
29.6 pmol per mg tissue	50.2 pmol per mg tissue	85.6%	131.6%	128.1 pmol per mg tissue	296.6 pmol per mg tissue	36.2%	13.6 pmol per mg tissue	18.5 pmol per mg tissue	−16.6%	14.4 pmol per mg tissue	12.0 pmol per mg tissue	653.5%	1.6 pmol per mg tissue	12.0 pmol per mg tissue	65.3%	32.0 pmol per mg tissue	52.9 pmol per mg tissue	91.3%	31.5 pmol per mg tissue	OC[C@H]1O[C@@H](Oc2cc3c(O)cc(O)cc3[o+]c2-c2ccc(O)c(O)c2)[C@H](O)[C@@H](O)[C@@H]1O [cyanidin 3-glucoside]	Anthocyanin concentration in saliva ([1]; patient 104): 11.2 pmol/mL; Anthocyanin concentration in saliva ([1]; patient 105): 9.7 pmol/mL; Anthocyanin concentration in saliva ([1]; patient 107): 19.7 pmol/mL; Anthocyanin concentration in saliva ([1]; patient 109): 22.8 pmol/mL; Anthocyanin uptake, Gel pH 6.5 ([2]; explant sample 006): 60.3 pmol per mg tissue; % change 3.5 to 6.5 ([2]; explant sample 007): 34.5%; Anthocyanin uptake, Gel pH 3.5 ([2]; explant sample 007): 17.0 pmol per mg tissue; Anthocyanin uptake, Gel pH 6.5 ([2]; explant sample 007): 22.8 pmol per mg tissue; % change 3.5 to 6.5 ([2]; explant sample 008): −40.7%; Anthocyanin uptake, Gel pH 3.5 ([2]; explant sample 008): 33.2 pmol per mg tissue; Anthocyanin uptake, Gel pH 6.5 ([2]; explant sample 008): 19.7 pmol per mg tissue; % change 3.5 to 6.5 ([2]; explant sample 009): 113.9%; Anthocyanin uptake, Gel pH 3.5 ([2]; explant sample 009): 21.2 pmol per mg tissue; Anthocyanin uptake, Gel pH 6.5 ([2]; explant sample 009): 45.3 pmol per mg tissue; % change 3.5 to 6.5 ([2]; explant sample 010): −66.9%; Anthocyanin uptake, Gel pH 3.5 ([2]; explant sample 010): 13.9 pmol per mg tissue; Anthocyanin uptake, Gel pH 6.5 ([2]; explant sample 010): 4.6 pmol per mg tissue; % change 3.5 to 6.5 ([2]; explant sample 011): −60.1%; Anthocyanin uptake, Gel pH 3.5 ([2]; explant sample 011): 18.9 pmol per mg tissue; Anthocyanin uptake, Gel pH 6.5 ([2]; explant sample 011): 7.5 pmol per mg tissue
1.9 pmol per mg tissue	5.3 pmol per mg tissue	89.0%	319.4%	7.4 pmol per mg tissue	30.9 pmol per mg tissue	427.3%	0.6 pmol per mg tissue	2.9 pmol per mg tissue	−19.7%	1.8 pmol per mg tissue	1.4 pmol per mg tissue	−66.4%	1.3 pmol per mg tissue	0.4 pmol per mg tissue	−61.8%	0.3 pmol per mg tissue	0.1 pmol per mg tissue	330.8%	2.3 pmol per mg tissue	OC[C@H]1O[C@@H](Oc2cc3c(O)cc(O)cc3[o+]c2-c2ccc(O)c(O)c2)[C@H](O[C@@H]2OC[C@@H](O)[C@H](O)[C@H]2O)[C@@H](O)[C@@H]1O.[Cl-] [Cyanidin 3-sambubioside, cyanidin 3-sambubioside]	Anthocyanin uptake, Gel pH 6.5 ([2]; explant sample 006): 10.1 pmol per mg tissue; % change 3.5 to 6.5 ([2]; explant sample 007): −14.6%; Anthocyanin uptake, Gel pH 3.5 ([2]; explant sample 007): 0.4 pmol per mg tissue; Anthocyanin uptake, Gel pH 6.5 ([2]; explant sample 007): 0.4 pmol per mg tissue; Anthocyanin uptake, Gel pH 3.5 ([2]; explant sample 008): 0.0 pmol per mg tissue; Anthocyanin uptake, Gel pH 6.5 ([2]; explant sample 008): 1.9 pmol per mg tissue; % change 3.5 to 6.5 ([2]; explant sample 009): 256.9%; Anthocyanin uptake, Gel pH 3.5 ([2]; explant sample 009): 2.9 pmol per mg tissue; Anthocyanin uptake, Gel pH 6.5 ([2]; explant sample 009): 10.3 pmol per mg tissue; % change 3.5 to 6.5 ([2]; explant sample 010): −92.9%; Anthocyanin uptake, Gel pH 3.5 ([2]; explant sample 010): 2.0 pmol per mg tissue; Anthocyanin uptake, Gel pH 6.5 ([2]; explant sample 010): 0.1 pmol per mg tissue; % change 3.5 to 6.5 ([2]; explant sample 011): −100%; Anthocyanin uptake, Gel pH 3.5 ([2]; explant sample 011): 2.1 pmol per mg tissue; Anthocyanin uptake, Gel pH 6.5 ([2]; explant sample 011): 0.0 pmol per mg tissue
